Measured values taken from ChEMBL document CHEMBL1201862, “PubChem BioAssay data set” (2004).
Active and inactive are the calls of the source.

What was measured:
[1] = molecular target: T1, Cysteine protease ATG4B (Homo sapiens, UniProt Q9Y4P1); type: functional;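 further: Fluorescence-based dose-response confirmation assay measuring inhibition of ATG4B activity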
T1 sequence (Q9Y4P1 whole entry): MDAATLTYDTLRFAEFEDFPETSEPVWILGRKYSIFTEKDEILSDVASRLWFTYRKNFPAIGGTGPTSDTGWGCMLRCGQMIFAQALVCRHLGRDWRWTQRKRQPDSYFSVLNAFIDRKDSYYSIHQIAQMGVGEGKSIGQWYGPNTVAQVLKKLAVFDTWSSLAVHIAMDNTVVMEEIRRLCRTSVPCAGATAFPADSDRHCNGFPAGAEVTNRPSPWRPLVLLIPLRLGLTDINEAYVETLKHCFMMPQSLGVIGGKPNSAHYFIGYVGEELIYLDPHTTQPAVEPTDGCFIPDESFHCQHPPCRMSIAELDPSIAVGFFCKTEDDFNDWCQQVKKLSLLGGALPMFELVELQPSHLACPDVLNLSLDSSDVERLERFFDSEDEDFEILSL

[2] = molecular target: Phospholipase A2 (Homo sapiens, UniProt P04054); type: functional;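 further: confirmatory dose-response counterscreen on phospholipase A2, testing hits that came from an ultra-high-throughput screen for ATG4B inhibitors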
[3] = molecular target: T2, Dual specificity protein phosphatase 3 (Homo sapiens, UniProt P51452); assay: VHR phosphatase inhibition, dose response, selectivity assay for STEP inhibitor project, biochemical (AID 602374); type: functional; settings: read-out: IC50_Mean
[4] = molecular target: Tyrosine-protein phosphatase non-receptor type 11 (Homo sapiens, UniProt Q06124); assay: PTPN11 enzyme inhibitors – biochemical, selectivity assay for STEP inhibitor project, dose response (AID 602367); type: functional; settings: read-out: IC50_Mean
[5] = molecular target: Tyrosine-protein phosphatase non-receptor type 5 (Homo sapiens, UniProt P54829); assay: PTPN5 enzyme inhibition – biochemical, fluorescence intensity, uHTS hits, confirmation (AID 602372); type: functional; settings: read-out: IC50_Mean
[6] = DRD fibroblast viability loss – cell-based, non-viral oncogenic, luminescence, dose response (AID 1934); type: functional; settings: Homo sapiens
[7] = system: BJ; assay: cells; type: functional, cell-based; settings: Homo sapiens
[8] = Luminescence Cell-Based Dose Confirmation HTS to Identify Inhibitors of Platelet Dense Granule Release. [Related pubchem assays: 1663 (Primary HTS), 1678 (Summary of Project)]; type: functional
[9] = system: BJ; assay: BJ-TERT-LT-ST fibroblast viability loss – cell-based, RAS-independent, luminescence, dose response (AID 1935); type: functional; settings: Homo sapiens;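 further: BJ fibroblasts immortalized with TERT plus LT and ST oncogenes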
[10] = Luminescence Cell-Based Dose Retest to Confirm Inhibitors of Cancer Stem Cells. [Related pubchem assays (depositor defined):AID2717, AID2721]; type: functional; settings: Homo sapiens
[11] = molecular target: DNA (cytosine-5)-methyltransferase 1 (Homo sapiens, UniProt P26358); assay: inhibition of DNA methylation by DNMT1 – biochemical, fluorescent molecular beacon, confirmation (AID 602386); type: functional
[12] = molecular target: Luciferin 4-monooxygenase (Photinus pyralis, UniProt P08659); assay: inhibition of purified Photinus pyralis luciferase – biochemical, luminescence, dose response (AID 1891)
[13] = system: BJ; assay: growth inhibition of engineered Ras-driven BJ cells – cell-based, alamar blue fluorescence, cherrypicked samples, dose response (AID 2631); type: functional; settings: Homo sapiens;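 further: confirmatory dose-response assay in RAS-dependent BJ fibroblasts engineered with TERT, LT and ST, with cytotoxicity read by fluorescence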
[14] = system: BJ; assay: BJ-TERT fibroblast viability loss – cell-based, RAS-independent, luminescence, dose response (AID 1933); type: functional; settings: Homo sapiens
[15] = Vero cell cytotoxicity, cytotoxicity control for M. tuberculosis inhibitor project, purified and synthesized samples, set 3 (AID 504684); type: functional
[16] = molecular target: T3, High affinity choline transporter 1 (Homo sapiens, UniProt Q9GZV3); assay: human choline transporter blockers, potency – cell-based, 5-point CRC, membrane potential dye, dose response (AID 504840); type: functional
T3 sequence (Q9GZV3 whole entry): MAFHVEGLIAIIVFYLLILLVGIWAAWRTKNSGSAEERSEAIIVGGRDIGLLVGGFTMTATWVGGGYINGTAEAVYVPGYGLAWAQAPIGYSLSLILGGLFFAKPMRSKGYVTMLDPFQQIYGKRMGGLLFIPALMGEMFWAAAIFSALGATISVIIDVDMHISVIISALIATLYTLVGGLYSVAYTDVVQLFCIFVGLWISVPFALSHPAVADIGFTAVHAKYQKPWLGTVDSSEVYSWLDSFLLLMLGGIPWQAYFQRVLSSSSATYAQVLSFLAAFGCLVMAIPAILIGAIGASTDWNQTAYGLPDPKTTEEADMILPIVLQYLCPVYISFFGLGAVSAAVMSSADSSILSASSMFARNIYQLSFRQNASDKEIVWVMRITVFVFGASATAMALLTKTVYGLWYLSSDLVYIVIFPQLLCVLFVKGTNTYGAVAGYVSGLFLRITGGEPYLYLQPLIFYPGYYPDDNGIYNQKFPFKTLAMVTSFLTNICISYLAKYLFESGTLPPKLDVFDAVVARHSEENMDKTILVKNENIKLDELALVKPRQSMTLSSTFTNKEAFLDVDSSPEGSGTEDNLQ

[17] = molecular target: T3, High affinity choline transporter 1; assay: human choline transporter blockers, potency – cell-based, 10-point CRC, membrane potential dye, dose response (AID 588401); type: functional;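 further: membrane potential dye fluorescence of choline-evoked depolarization via CHT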
[18] = molecular target: T2, Dual specificity protein phosphatase 3; assay: VHR1 phosphatase inhibitors, primary screen, biochemical, absorbance, uHTS (AID 1654)
[19] = molecular target: T4, Dual specificity protein phosphatase 6 (Rattus norvegicus, UniProt Q64346); assay: inhibition of rat DUSP6 enzyme activity – biochemical, in vitro, primary screen (AID 425)
T4 sequence (Q64346 whole entry): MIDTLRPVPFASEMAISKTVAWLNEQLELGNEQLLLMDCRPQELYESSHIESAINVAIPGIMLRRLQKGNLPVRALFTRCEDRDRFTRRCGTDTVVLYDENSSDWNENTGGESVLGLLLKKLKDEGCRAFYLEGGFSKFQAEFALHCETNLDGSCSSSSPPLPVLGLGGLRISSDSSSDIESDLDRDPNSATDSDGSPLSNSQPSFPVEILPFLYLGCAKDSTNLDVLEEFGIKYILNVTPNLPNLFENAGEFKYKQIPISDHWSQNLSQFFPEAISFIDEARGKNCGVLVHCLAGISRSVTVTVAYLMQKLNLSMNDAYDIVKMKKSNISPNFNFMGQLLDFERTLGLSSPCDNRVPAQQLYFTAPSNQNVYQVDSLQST

[20] = molecular target: T2, Dual specificity protein phosphatase 3; assay: VHR1 phosphatase inhibitors, biochemical (AID 1878)
[21] = decrease of insulin promoter-GFP reporter – imaging, high-content screening, mouse beta cells (AID 1628); type: functional; settings: MIN6
[22] = molecular target: T5, Serine/threonine-protein phosphatase (Candida dubliniensis (strain CD36 / CBS 7987 / NCPF 3949 / NRRLY-17841) (Yeast), UniProt B9W6M3); assay: blockers of CaCl2-induced CDRE-lacZ signaling – S. cerevisiae, luminescence, secondary, dose response (AID 2388); type: functional, cell-based;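 further: yeast reporter cells carrying a calcineurin-responsive lacZ construct stimulated with calcium chloride; luminescent beta-galactosidase reporter signal in whole cells rather than isolated phosphatase activity; potency for inhibition where a drop in reporter signal means calcineurin blockade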
T5 sequence (B9W6M3 whole entry): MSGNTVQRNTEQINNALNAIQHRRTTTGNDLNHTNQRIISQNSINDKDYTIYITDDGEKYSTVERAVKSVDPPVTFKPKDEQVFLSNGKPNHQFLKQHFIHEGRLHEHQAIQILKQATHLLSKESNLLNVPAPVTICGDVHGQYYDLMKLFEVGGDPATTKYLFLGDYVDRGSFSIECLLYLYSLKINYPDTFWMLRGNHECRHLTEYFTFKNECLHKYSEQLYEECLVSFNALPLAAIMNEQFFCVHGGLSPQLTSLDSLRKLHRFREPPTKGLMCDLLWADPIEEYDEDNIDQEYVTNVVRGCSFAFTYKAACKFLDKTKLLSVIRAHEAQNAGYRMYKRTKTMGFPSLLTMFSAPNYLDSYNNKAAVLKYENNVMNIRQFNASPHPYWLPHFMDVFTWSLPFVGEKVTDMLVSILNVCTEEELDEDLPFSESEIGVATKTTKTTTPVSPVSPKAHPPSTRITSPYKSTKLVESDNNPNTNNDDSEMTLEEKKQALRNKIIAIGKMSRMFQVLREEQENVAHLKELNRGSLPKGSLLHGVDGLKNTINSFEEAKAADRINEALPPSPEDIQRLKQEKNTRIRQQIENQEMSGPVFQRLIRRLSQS

[23] = system: Streptococcus sp. 'group A'; assay: Streptococcus pyogenes SK(-)GAS viability under kanamycin – luminescence, BacTiterGlo, confirmation, counter-screen for streptokinase expression inhibitor project, dose response (AID 1900); type: functional, organism-based
[24] = MIN6 cell viability loss – mouse insulinoma, cytotoxicity control, dose response (AID 2122); type: functional;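 further: confirmatory high-throughput counterscreen run to flag cytotoxic compounds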
[25] = NIH-3T3 fibroblast cytotoxicity, dose response, cytotoxicity control, cell-based, fluorescence, Alamar Blue, secondary assay (AID 2327); type: functional;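 further: NIH-3T3 mouse fibroblasts cultured with fluconazole at 8 µg/mL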
[26] = fluconazole-exposed Candida albicans growth modulators – fluorescence, retest, confirmation (AID 2467); type: functional, cell-based
[27] = molecular target: ATP-dependent molecular chaperone HSP82 (Candida albicans (strain WO-1) (Yeast), UniProt C4YTQ8); assay: steroid-induced GRE reporter decrease in yeast – S. cerevisiae, luminescence, Hsp90 inhibitor project, dose response (AID 2400); type: functional, cell-based;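 further: beta-galactosidase luminescence from glucocorticoid response element reporter as proxy for Hsp90 function; inhibitor potency where signal loss means Hsp90 inhibition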
[28] = system: Streptococcus; assay: GAS UMAA2166 growth inhibition – luminescence, BacTiterGlo, counter-screen for streptokinase expression inhibitor project, dose response (AID 1915); type: functional, organism-based;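 further: potency for reduction of bacterial viability or growth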
[29] = molecular target: Ras and Rab interactor 1/Tyrosine-protein kinase ABL1 (Homo sapiens, UniProt P00519+Q13671); type: functional;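 further: biochemical TR-FRET dose-response test measuring inhibition of binding between Rin1 and Abl proteins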
[30] = reduced cellular PGC1a acetyl-lysine signal – cell-based, cherry-picked samples, dose response (AID 720514); type: functional;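 further: potency may reflect raised or lowered acetylation signal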
[31] = molecular target: T6, Interleukin-8 (Homo sapiens, UniProt P10145); assay: Dose Response confirmation of uHTS small molecule hits for cystic fibrosis induced NFkb Inhibitors in a PAF-induced IL8 counterscreen.; type: functional; settings: read-out: IC50_Mean
T6 sequence (P10145 whole entry): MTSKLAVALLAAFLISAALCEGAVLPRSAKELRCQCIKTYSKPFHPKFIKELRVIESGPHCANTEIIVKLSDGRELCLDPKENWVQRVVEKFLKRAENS

[32] = activation of miR-122 Renilla sensor silencing – cell-based, Huh7 psiCHECK-miR122, Renilla luciferase, cherry-picked, dose response (AID 651956); type: functional;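 further: huh7 hepatoma cells stably carrying a psiCHECK-2 miR-122 sensor plasmid; renilla luciferase signal reporting endogenous miR-122 activity after 48 h compound exposure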
[33] = molecular target: T7, Fatty acid synthase (Homo sapiens, UniProt P49327); assay: inhibition of human FAS-TE enzyme activity – biochemical, kinetic fluorescence intensity, dose response (AID 624326); type: functional;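 further: rate of fluorescence rise from hydrolysis of a fluorogenic O-methyl fluorescein ester substrate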
[34] = molecular target: T7, Fatty acid synthase; assay: inhibition of human FAS-TE enzyme activity – biochemical, endpoint fluorescence intensity, uHTS hits, dose response (AID 624327); type: functional;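 further: fluorescence from hydrolysis of an O-methyl fluorescein acyl ester substrate by the enzyme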
[35] = molecular target: 5-hydroxytryptamine receptor 2A (Mus musculus, UniProt P35363); type: functional, cell-based;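 further: CHO-K1 cells with tagged receptor and beta-arrestin; agonist potency measured as compound-induced activation of the receptor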
[36] = molecular target: Mu-type opioid receptor (Homo sapiens, UniProt P35372); type: functional, cell-based;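 further: U2OS cells with beta-arrestin recruitment to OPRM1 by beta-gal complementation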

T2 sequence (P51452 whole entry): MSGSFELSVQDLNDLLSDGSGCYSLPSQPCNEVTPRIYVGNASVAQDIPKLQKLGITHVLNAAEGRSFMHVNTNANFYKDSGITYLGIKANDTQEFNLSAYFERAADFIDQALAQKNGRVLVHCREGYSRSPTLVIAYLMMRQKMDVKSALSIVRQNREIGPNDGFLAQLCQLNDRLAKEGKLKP
Phospholipase A2, sequence (P04054 whole entry): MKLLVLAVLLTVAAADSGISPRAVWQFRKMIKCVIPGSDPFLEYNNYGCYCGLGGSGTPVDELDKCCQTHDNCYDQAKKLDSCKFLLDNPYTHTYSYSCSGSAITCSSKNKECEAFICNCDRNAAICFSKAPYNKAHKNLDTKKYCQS
Ras and Rab interactor 1/Tyrosine-protein kinase ABL1, sequence (P00519 whole entry): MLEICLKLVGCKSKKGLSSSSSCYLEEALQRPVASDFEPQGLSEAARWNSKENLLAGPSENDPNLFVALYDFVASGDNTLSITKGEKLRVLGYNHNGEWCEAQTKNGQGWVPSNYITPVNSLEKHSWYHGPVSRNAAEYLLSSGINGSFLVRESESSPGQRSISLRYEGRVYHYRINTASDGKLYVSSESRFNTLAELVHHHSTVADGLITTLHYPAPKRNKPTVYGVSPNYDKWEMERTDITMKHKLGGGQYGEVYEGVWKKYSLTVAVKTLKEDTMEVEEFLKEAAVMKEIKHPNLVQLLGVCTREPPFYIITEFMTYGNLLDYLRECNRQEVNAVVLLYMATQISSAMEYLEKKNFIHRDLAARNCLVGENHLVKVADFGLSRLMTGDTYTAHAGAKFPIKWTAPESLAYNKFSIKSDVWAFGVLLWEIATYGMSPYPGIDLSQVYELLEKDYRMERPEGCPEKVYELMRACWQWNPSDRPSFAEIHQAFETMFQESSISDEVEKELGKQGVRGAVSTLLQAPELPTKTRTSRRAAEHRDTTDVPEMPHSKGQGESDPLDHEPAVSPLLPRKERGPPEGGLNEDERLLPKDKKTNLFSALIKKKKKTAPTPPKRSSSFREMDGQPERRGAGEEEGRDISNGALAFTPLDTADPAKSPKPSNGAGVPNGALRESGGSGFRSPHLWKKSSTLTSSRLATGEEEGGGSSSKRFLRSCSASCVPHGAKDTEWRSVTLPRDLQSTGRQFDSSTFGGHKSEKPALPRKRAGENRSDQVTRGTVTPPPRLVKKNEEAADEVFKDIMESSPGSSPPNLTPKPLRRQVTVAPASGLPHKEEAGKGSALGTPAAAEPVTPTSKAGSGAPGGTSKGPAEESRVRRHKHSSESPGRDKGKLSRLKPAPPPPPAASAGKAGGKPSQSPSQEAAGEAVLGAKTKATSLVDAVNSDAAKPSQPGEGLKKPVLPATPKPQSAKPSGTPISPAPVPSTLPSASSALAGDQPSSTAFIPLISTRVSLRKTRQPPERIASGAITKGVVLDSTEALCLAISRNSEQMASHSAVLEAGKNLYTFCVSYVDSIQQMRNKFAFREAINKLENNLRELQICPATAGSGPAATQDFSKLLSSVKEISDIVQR
Ras and Rab interactor 1/Tyrosine-protein kinase ABL1, sequence (Q13671 whole entry): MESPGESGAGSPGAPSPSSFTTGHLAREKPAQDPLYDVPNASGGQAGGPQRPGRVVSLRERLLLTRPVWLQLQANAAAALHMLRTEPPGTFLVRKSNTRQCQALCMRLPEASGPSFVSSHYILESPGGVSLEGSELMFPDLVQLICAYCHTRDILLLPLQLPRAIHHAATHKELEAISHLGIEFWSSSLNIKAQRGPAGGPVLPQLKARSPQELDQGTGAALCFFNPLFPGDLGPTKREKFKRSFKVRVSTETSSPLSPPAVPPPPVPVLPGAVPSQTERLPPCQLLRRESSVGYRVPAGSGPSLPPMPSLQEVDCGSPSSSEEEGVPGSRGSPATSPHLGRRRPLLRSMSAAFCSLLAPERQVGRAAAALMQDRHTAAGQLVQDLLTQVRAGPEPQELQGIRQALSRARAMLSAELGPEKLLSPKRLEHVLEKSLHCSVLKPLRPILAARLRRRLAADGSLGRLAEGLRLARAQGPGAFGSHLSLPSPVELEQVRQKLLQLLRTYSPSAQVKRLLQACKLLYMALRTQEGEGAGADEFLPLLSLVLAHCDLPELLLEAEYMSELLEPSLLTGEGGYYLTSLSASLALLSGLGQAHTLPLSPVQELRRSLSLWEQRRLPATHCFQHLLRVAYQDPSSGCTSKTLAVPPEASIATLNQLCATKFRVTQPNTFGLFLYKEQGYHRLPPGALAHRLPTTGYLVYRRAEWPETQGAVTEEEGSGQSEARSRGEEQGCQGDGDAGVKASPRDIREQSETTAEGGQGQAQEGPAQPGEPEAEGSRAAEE
Tyrosine-protein phosphatase non-receptor type 11, sequence (Q06124 whole entry): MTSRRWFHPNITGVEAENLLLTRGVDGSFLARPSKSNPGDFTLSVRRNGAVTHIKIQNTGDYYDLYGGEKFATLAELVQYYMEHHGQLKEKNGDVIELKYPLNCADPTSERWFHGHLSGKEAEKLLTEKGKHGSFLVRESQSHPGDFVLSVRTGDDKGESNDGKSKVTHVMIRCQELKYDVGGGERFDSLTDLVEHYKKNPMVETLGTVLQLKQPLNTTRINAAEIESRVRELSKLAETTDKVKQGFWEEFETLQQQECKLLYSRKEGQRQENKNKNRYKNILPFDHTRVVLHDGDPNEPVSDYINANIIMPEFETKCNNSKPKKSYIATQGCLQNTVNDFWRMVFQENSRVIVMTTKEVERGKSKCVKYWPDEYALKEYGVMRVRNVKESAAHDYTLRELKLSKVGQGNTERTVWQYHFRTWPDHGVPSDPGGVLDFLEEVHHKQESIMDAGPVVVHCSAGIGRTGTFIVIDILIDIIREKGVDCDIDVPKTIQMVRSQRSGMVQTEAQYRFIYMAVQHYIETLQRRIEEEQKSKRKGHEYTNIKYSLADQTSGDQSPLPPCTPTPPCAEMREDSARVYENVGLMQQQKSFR
Tyrosine-protein phosphatase non-receptor type 5, sequence (P54829 whole entry): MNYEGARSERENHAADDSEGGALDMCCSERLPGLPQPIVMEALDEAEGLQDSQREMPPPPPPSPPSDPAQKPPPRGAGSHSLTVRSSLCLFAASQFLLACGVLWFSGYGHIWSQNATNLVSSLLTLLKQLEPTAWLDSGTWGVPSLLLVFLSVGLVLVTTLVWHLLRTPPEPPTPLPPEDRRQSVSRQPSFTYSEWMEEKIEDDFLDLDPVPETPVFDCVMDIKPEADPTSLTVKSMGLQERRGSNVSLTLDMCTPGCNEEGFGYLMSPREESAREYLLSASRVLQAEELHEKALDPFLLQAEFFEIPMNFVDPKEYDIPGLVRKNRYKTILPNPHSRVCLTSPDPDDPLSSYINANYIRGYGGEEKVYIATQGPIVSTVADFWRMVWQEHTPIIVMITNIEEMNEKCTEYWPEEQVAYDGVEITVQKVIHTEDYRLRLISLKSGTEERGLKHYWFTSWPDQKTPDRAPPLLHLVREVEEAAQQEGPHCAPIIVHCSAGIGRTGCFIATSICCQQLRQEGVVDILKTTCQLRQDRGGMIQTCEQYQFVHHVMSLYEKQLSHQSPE
DNA (cytosine-5)-methyltransferase 1, sequence (P26358 whole entry): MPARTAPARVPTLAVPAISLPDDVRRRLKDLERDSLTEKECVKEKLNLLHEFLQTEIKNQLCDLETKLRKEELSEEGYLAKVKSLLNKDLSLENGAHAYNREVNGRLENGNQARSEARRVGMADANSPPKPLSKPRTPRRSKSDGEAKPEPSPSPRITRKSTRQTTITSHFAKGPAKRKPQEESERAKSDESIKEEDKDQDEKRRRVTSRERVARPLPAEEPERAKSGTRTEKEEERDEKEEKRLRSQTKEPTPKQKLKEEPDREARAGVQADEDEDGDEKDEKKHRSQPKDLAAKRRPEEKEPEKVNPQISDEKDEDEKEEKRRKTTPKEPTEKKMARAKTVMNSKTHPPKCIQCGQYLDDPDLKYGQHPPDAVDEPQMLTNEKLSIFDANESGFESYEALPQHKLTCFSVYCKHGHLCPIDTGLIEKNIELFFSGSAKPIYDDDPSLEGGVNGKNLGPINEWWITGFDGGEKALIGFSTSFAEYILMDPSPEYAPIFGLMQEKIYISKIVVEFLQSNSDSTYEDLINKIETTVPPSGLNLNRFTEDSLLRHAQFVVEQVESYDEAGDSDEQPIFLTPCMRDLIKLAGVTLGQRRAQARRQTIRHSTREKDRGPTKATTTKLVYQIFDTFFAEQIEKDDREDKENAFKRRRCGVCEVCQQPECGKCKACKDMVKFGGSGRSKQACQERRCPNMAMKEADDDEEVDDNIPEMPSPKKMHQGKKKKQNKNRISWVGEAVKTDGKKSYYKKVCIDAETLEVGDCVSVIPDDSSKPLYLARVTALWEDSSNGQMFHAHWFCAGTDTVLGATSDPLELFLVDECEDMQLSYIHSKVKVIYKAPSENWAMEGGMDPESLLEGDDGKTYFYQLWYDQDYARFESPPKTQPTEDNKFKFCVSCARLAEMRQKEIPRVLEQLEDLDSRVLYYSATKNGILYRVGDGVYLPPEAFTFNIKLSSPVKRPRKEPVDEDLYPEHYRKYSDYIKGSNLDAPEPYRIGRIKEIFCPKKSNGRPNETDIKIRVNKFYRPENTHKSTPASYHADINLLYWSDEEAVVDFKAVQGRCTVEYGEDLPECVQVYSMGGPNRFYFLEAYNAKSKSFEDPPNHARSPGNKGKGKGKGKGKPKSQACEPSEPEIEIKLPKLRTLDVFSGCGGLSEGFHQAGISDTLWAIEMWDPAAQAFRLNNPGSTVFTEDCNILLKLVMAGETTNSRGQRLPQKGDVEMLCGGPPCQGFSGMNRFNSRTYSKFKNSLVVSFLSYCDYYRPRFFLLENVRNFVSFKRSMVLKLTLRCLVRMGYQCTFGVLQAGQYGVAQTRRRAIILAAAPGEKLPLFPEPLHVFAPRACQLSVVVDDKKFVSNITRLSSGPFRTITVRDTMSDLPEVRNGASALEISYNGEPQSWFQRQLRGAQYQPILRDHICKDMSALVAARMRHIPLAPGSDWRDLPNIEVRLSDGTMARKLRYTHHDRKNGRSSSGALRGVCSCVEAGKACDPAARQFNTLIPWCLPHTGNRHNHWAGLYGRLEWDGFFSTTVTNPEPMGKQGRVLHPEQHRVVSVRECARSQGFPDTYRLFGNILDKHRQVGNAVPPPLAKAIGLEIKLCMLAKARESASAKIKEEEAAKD

Cc1ccc(S(=O)(=O)N2CCC(C(=O)NCc3ccccc3Cl)CC2)cc1
IC50 [1]: 17.5 µM (active)
IC50 [2]: 9.46 µM (active)

Cc1ccc(NC(=O)c2ccc3nc(N4CCOCC4)sc3c2)c(Cl)c1
IC50 [3]: 0.804 µM (active)
IC50 [4]: 1.97 µM (active)
IC50 [5]: 17.2 µM (active)

O=C(Oc1ccc(-c2nc(-c3ccccn3)no2)cc1)c1ccccc1
EC50 [6]: 3.96 µM (active)
EC50 [7]: 3.19 µM (active)
EC50 [8]: 0.475 µM (active)
EC50 [9]: 16.8 µM (active)
AC50 [10]: 2.63 µM (active)
IC50 [11]: > 99 µM (inactive)
EC50 [12]: 0.421 µM (active)
EC50 [13]: > 133 µM (inactive)
EC50 [14]: 4.55 µM (active)

Cc1ccc(NC(=O)C2C3/C=C\CCCCC32)cc1C (centres undefined)
CC50 [15]: > 100 µM (active)

Cc1ccc2c(c1)[C@@H]1CN(C)CC[C@@H]1N2C(=O)Nc1cccc(C(F)(F)F)c1
IC50 [16]: 8.23 µM (active)
IC50 [17]: 6.31 µM (active)

COC(=O)Nc1sc2c(c1C(N)=O)CCC(C)C2 (centres undefined)
IC50 [18]: 1.9 µM (active)
IC50 [19]: > 158 µM (not active)
IC50 [3]: 0.312 µM (active)
IC50 [20]: 3.56 µM (active)
IC50 [4]: 1.81 µM (active)
IC50 [5]: 4.65 µM (active)

CC1(C)COCN1S(=O)(=O)c1ccc(C(=O)Nc2nnc(-c3ccc(Cl)s3)o2)cc1
IC50 [21]: 3.39 µM (active)
EC50 [22]: > 180 µM (inactive)
EC50 [23]: 0.691 µM (active)
IC50 [24]: 3.33 µM (active)
EC50 [25]: 68.5 µM (active)
EC50 [26]: 0.308 µM (active)
EC50 [27]: 22.2 µM (active)
EC50 [28]: 0.841 µM (active)
IC50 [16]: 13.8 µM (active)

Cc1ccc(C2N(c3cccc(Cl)c3)C(=O)N3CCCN23)cc1 (centres undefined)
IC50 [29]: 11.1 µM (inactive)

Nc1ncnc(NCc2ccc(F)cc2)c1[N+](=O)[O-]
AC50 [30]: 3.1 µM (active)
IC50 [31]: > 79 µM (inactive)

CC[C@]12c3[nH]c4ccc(OC)cc4c3CCN1C(=O)C(CC(=O)NCC13C[C@H]4C[C@@H](C1)C[C@@H](C3)C4)C[C@@H]2C(=O)N1CCN(C(=O)C2CC2)CC1 (some centres undefined)
IC50 [29]: 12.9 µM (inactive)

COC(=O)c1c(NC(=O)C2Cc3ccccc3C(=O)O2)sc2c1CCCC2 (centres undefined)
IC50 [1]: 1.62 µM (active)
IC50 [2]: 1.02 µM (active)

CC(=O)OC1CC2(C)/C(=N\O)CCC2C2CCc3cc(O)ccc3C12 (centres undefined)
IC50 [16]: 0.953 µM (active)
IC50 [17]: 0.605 µM (active)

COc1ccc(C#Cc2ccc3c(c2)O[C@H](CN(C)C(=O)CN2CCOCC2)[C@H](C)CN([C@H](C)CO)S3(=O)=O)cc1
AC50 [32]: 12.3 µM (active)

COc1cc(C(=O)N/N=C/c2coc3ccc(Cl)cc3c2=O)ccc1O
IC50 [33]: 7.45 µM (active)
IC50 [34]: 18.5 µM (active)
IC50 [1]: 3.35 µM (active)
IC50 [2]: 16.2 µM (active)

CNCC(=O)c1ccc(O)c(O)c1 [ADRENALONE]
EC50 [35]: 4.04 µM (active)
EC50 [36]: 92.4 µM (inactive)

CCCCC[C@H](O)/C=C/[C@@H]1[C@@H](C/C=C\CCCC(=O)O)[C@@H](O)C[C@H]1O [DINOPROST TROMETHAMINE]
IC50 [16]: 2.94 µM (active)
IC50 [17]: 2.77 µM (active)
